In ChEMBL document CHEMBL3301562, “MMV Box screening against Plasmodium falciparum protein kinases and aminoacyl tRNA synthetases”:

Assays:
Type in all cases: functional
[1] = molecular target: T1, Cdk-related protein kinase 6 (Plasmodium falciparum, UniProt O77239); assay: Final concentrations were 1.5 uM ATP, 5 mM MnCl2, and 15 ug/ml PK6 in a buffer of 100 mM Tris-HCl (pH 7.5). 50 ug/mL MBP was provided as the substrate; 10 uM staurosporine was used as a control inhibitor. Incubation time was 3 hours and 40 minutes.The catalytic activity of each kinase was considered proportional to ATP consumed, as determined from measurements of residual [ATP] with the luciferase-based reagent Kinase-Glo (Promega) following incubation. Luminescence (proportional to residual [ATP]) was measured on the plate readers FLx800 (BioTek Instruments, Winooski, VT, USA) and MicroBeta2.
T1 sequence (O77239 whole entry): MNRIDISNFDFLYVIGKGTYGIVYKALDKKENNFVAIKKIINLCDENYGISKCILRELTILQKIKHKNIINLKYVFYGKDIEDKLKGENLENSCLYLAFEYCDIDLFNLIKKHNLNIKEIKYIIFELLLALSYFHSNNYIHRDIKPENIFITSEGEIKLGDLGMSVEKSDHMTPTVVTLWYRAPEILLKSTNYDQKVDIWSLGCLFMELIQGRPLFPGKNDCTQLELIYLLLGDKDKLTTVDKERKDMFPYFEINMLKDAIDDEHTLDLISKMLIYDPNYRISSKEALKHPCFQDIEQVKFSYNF

[2] = molecular target: T2, Putative uncharacterized protein pk7 (Plasmodium falciparum, UniProt O96214); assay: Final concentrations were 1 uM ATP, 2 mM DTT, 20 mM MgCl2, 2 mM MnCl2, 0.01% BSA, and 6 ug/ml PK7, in a buffer of 20 mM Tris-HCl (pH 7.5). The enzyme itself was the only substrate present (since autophosphorylation occurs); 100 uM 1NA-PP1 was used as a control inhibitor. Incubation time was 3 hours.
T2 sequence (O96214 whole entry): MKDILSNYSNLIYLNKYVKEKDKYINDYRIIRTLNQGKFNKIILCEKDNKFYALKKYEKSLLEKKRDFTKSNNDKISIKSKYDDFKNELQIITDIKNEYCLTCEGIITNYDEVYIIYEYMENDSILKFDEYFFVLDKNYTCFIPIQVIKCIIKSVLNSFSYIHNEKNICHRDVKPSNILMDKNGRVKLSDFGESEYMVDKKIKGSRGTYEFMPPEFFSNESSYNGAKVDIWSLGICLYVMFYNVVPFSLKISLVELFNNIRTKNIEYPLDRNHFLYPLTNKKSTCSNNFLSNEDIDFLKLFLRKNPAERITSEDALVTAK

[3] = molecular target: T3, Mitogen-activated protein kinase (Plasmodium falciparum, UniProt Q25917); assay: Final concentrations were 1 uM ATP, 0.5 mM DTT, 1 mM MgCl2, 0.5 mg/mL BSA, and 10 ug/ml MAP2 in a buffer of 50 mM HEPES (pH 7.0). 0.5 mg/mL histone III-S served as the substrate (13); 100 uM AMP-PNP, an ATP analog, was used as a control inhibitor. Incubation time was 4 hours.
T3 sequence (Q25917 whole entry): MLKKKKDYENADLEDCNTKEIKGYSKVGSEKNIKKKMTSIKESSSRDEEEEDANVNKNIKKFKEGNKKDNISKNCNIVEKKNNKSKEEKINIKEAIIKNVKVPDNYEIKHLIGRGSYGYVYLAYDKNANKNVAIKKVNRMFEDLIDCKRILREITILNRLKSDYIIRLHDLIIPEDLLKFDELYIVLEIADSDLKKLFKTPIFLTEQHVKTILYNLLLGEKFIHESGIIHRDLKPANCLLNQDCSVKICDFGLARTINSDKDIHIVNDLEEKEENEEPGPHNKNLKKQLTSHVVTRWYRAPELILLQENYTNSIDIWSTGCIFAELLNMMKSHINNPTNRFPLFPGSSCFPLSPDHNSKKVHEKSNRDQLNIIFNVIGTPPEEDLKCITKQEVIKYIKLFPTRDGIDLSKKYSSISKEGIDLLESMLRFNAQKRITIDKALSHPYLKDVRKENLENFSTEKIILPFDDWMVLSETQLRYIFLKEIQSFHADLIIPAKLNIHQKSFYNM

[4] = molecular target: Calcium-dependent protein kinase 1 (Plasmodium falciparum, UniProt P62344); assay: MMV: CDPK1 Protein kinase inhibition assay using recombinant PfCDPK1, syntide 2 peptide substrate, ATP and KinaseGlo to measure % inhibition at 1 uM MMV box compound.
Sequence of Calcium-dependent protein kinase 1 (P62344 whole entry): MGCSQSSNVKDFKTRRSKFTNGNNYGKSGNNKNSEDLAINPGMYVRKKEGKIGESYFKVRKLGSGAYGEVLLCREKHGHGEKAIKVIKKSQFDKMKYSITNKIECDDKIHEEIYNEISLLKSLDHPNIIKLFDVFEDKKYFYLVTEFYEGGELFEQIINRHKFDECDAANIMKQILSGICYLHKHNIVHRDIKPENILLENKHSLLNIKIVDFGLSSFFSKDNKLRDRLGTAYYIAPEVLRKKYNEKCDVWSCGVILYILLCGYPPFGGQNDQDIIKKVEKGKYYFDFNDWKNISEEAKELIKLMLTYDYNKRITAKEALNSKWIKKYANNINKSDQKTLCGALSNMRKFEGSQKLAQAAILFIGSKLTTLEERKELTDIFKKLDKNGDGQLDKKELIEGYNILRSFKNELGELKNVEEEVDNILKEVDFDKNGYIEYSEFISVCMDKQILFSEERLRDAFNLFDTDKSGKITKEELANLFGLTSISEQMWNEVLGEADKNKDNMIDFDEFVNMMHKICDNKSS

[5] = molecular target: T4, Calcium-dependent protein kinase 4 (Plasmodium falciparum (isolate 3D7), UniProt Q8IBS5); assay: MMV: CDPK4 Protein kinase inhibition assay using recombinant PfCDPK4, syntide2 peptide substrate, ATP and KinaseGlo to measure % inhibition at 1 uM MMV box compound.
T4 sequence (Q8IBS5 whole entry): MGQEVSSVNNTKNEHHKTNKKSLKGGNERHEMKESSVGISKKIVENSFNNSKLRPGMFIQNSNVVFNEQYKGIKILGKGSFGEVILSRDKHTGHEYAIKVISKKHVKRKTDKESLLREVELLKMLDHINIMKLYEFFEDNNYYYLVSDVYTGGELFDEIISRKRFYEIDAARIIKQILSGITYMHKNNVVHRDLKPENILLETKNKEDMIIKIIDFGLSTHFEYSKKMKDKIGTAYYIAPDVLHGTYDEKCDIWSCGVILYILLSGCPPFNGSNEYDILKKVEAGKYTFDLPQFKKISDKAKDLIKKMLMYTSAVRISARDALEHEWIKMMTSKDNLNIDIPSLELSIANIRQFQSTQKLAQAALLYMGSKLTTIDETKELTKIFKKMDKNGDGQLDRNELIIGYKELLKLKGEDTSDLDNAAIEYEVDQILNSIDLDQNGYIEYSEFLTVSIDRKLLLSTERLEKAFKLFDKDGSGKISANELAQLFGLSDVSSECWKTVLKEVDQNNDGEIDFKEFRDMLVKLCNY

Proline--tRNA ligase = molecular target: T5, Proline--tRNA ligase (Plasmodium falciparum (isolate 3D7), UniProt Q8I5R7); assay: MMV: ProRS recombinant Plasmodium falciparum Prolyl-tRNA-synthetase, assay with yeast tRNA, ATP, and proline and 3 uM MMV malaria box compound, assay read out with kinase glo as % inhibition.
T5 sequence (Q8I5R7 whole entry): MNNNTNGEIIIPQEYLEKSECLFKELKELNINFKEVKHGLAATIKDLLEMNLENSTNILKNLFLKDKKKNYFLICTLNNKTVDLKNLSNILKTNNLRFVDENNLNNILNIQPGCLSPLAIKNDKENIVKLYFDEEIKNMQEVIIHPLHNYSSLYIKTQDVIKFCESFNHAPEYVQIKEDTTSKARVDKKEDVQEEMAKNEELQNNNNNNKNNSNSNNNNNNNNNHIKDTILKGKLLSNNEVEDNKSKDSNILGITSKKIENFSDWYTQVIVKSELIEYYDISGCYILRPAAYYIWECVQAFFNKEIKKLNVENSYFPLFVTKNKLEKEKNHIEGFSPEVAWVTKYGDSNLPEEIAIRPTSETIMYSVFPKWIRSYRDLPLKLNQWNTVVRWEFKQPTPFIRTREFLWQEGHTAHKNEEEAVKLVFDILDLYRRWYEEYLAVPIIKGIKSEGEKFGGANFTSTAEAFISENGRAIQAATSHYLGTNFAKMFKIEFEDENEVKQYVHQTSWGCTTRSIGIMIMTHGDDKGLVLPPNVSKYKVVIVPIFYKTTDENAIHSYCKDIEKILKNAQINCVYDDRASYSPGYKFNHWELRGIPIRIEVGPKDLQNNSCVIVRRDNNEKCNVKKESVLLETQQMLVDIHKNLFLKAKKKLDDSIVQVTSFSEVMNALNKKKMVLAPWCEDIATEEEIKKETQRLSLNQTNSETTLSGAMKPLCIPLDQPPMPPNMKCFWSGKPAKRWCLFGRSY

Lysine--tRNA ligase = Lysine--tRNA ligase (Plasmodium falciparum (isolate 3D7), UniProt Q8IDJ8); assay: MMV: KRS recombinant Plasmodium falciparum Lysyl-tRNA-synthetase, assay with yeast tRNA, ATP, and lysine and 3 uM MMV malaria box compound, assay read out with kinase glo as % inhibition.
Sequence of Lysine--tRNA ligase (Q8IDJ8 whole entry): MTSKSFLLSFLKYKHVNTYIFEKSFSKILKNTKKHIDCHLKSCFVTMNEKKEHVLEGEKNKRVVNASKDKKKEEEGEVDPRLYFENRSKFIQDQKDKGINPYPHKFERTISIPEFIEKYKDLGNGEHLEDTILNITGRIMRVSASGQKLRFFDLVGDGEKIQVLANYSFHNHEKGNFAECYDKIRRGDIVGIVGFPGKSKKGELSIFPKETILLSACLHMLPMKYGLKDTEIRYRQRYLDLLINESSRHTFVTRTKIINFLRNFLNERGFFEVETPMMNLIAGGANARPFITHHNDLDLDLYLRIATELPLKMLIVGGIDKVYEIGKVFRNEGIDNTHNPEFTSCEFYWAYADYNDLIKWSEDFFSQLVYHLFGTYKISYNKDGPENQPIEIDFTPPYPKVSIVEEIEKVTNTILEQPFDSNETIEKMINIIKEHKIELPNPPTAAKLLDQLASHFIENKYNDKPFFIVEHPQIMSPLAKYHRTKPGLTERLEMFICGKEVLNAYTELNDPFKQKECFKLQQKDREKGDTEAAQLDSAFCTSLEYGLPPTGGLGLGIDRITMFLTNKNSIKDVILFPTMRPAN

Row | SMILES | IC50 [1] [nM] | IC50 [2] [nM] | IC50 [3] [nM] | IC50 [4] [nM] | IC50 [5] [nM] | IC50 (Proline--tRNA ligase) [nM] | IC50 (Lysine--tRNA ligase) [nM]
1 | COc1ccc2c(c1)C1(Nc3ccccc3-c3nc4ccccc4n31)C(=O)N2 (centres undefined) | > 1000 | > 1000 | > 1000 | > 1000 | > 1000 | > 2500 | > 2500
2 | COc1cccc(Cn2c(Oc3ccccc3)nc3c2c(=O)n(C)c(=O)n3C)c1 | > 1000 | > 1000 | > 1000 | > 1000 | > 1000 | > 2500 | > 2500
3 | CCOc1ccccc1CN1CCc2nc3cc(C(C)(C)C)nn3c(O)c2C1 | > 1000 | > 1000 | > 1000 | > 1000 | > 1000 | > 2500 | > 2500
4 | Cc1cc(N2CCCC2)nc(Nc2ccc(NC(=O)CCc3ccccc3)cc2)n1 | > 1000 | > 1000 | > 1000 | > 1000 | > 1000 | > 2500 | > 2500
5 | CN1CCN(c2ncnc3c2[nH]c2ccc(Cl)cc23)CC1 | > 1000 | > 1000 | > 1000 | > 1000 | > 1000 | > 2500 | > 2500
6 | CN(C)CCNc1cc(-c2ccccc2)nc2ccccc12 | > 1000 | > 1000 | > 1000 | > 1000 | > 1000 | > 2500 | > 2500
7 | COc1ccc2nc(C)cc(Nc3ccc(Cl)cc3)c2c1 | > 1000 | > 1000 | > 1000 | > 1000 | > 1000 | > 2500 | > 2500
8 | COc1ccc2nc(C)cc(Nc3cccc(O)c3)c2c1 | > 1000 | > 1000 | > 1000 | > 1000 | > 1000 | > 2500 | > 2500
9 | Cc1sc2ncnc(Sc3nc4ccccc4[nH]3)c2c1C | > 1000 | > 1000 | > 1000 | > 1000 | > 1000 | > 2500 | > 2500
10 | O=C(Nc1ccc(CN2CCOCC2)cc1)c1ccc(-c2cc(Cl)ccc2Cl)o1 | > 1000 | > 1000 | > 1000 | > 1000 | > 1000 | > 2500 | > 2500
11 | CCOc1ccccc1NC(=O)CN1CCN(C(=O)c2ccco2)CC1 | > 1000 | > 1000 | > 1000 | > 1000 | > 1000 | > 2500 | > 2500
12 | CCOc1cc2c(cc1OCC)C(c1cc(C)c(O)c(C)c1)NCC2 (centres undefined) | > 1000 | > 1000 | > 1000 | > 1000 | > 1000 | > 2500 | > 2500
13 | CC(C)c1ccc(CNCC(O)c2ccccc2)cc1 (centres undefined) | > 1000 | > 1000 | > 1000 | > 1000 | > 1000 | > 2500 | > 2500
14 | Oc1ccc(Br)cc1CN1CCN(Cc2cccc(F)c2)CC1 | > 1000 | > 1000 | > 1000 | > 1000 | > 1000 | > 2500 | > 2500
15 | CN(C)c1ccc(N2C(N)=NC(N)=NC2(C)C)cc1 | > 1000 | > 1000 | > 1000 | > 1000 | > 1000 | > 2500 | > 2500
16 | Oc1c(CN2CCN(c3ccccc3F)CC2)cc(Br)c2cccnc12 | > 1000 | > 1000 | > 1000 | > 1000 | > 1000 | > 2500 | > 2500
17 | CCCCc1c(C)nc2c(OC)cccc2c1O | > 1000 | > 1000 | > 1000 | > 1000 | > 1000 | > 2500 | > 2500
18 | Clc1ccc2c(N3CCCC3)ccnc2c1 | > 1000 | > 1000 | > 1000 | > 1000 | > 1000 | > 2500 | > 2500
19 | CCOC(=O)C1CCN(C(=O)CN2C(=O)c3ccccc3C2c2c[nH]c3ccccc23)CC1 (centres undefined) | > 1000 | > 1000 | > 1000 | > 1000 | > 1000 | > 2500 | > 2500
20 | O=c1c2c([nH]c3ccccc13)CCCC2 | > 1000 | > 1000 | > 1000 | > 1000 | > 1000 | > 2500 | > 2500
21 | Cc1c(C)n(CC(O)CNC2CCCCC2C)c2ccccc12 (centres undefined) | > 1000 | > 1000 | > 1000 | > 1000 | > 1000 | > 2500 | > 2500
22 | CCCCN(CCCC)S(=O)(=O)c1ccc(NC(=O)c2ccco2)cc1 | > 1000 | > 1000 | > 1000 | > 1000 | > 1000 | > 2500 | > 2500
